The values below come from patent US10696651B2, “Heterocyclic compound” (Takeda Pharmaceutical Company Limited, priority 2016, dated 2020).

Assay [1] relates to ATF4 expression in human acute lymphoblastic leukemia cell line CCRF-CEM. Put plainly: In vitro ATF4 expression suppression assay (Western blot) in the presence of L-asparaginase. The class given is cell-based. Conditions: compound concentration 400 nM, L-asparaginase 0.1 U/mL, 4 hr. As to the method: A cell suspension (40 μL) (500000 cells/well) of human acute lymphoblastic leukemia cell line CCRF-CEM obtained from ATCC (American Type Culture Collection) was seeded on a 12 well plate using RPMI1640 medium. The seeded cells were incubated (37° C., 5% CO2) overnight to 24 hr at the longest. L-asparaginase (Sigma-Aldrich Co. LLC.) was dissolved in PBS and treated in each well to a final concentration of 0.1 U/mL. Furthermore, each test compound was dissolved (10 mM) in DMSO, delivered to wells by using TECAN HP D300 (TECAN), and the plate was incubated for 4 hr (37° C., 5% CO2). A well without addition of compound was treated similarly as a control group. […]
Protein extract solution was subjected to protein quantification with BCA Protein Assay Kit (Thermo Scientific), electrophoresed on 7.5-15% SDS-PAGE gel (DRC), and protein in the gel was transferred to PVDF membrane. […] Thereafter, chemiluminescence was performed using ImmunoStar LD (Wako Pure Chemical Industries, Ltd.), and luminescence intensity was measured by LAS-3000 image analyzer (Fuji Film Co., Ltd.). Furthermore, the expression level of ATF4 was digitized by quantifying the luminescence intensity using Multi Gauge Ver. […]
For orientation: Immunoblotting shows a protein as a band on a membrane.

Assay [2] has as its target T1, human GCN2 full-length protein (Homo sapiens, UniProt Q9P2K8).
T1 construct: purchased Carna Biosciences, Inc
The assay is described as follows: GCN2 enzyme inhibition assay (LanthaScreen TR-FRET). The class given is biochemical. Conditions: GCN2 enzyme inhibitory activity at compound concentration of 3 μM; Table 3-1; read-out: inhibitory rate. In a few lines:
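Full-length human GCN2 was preincubated with compound for 1 hr at room temperature, then reacted for 1 hr with substrate and ATP added from a 570 μM ATP / 390 nM substrate solution (stock concentrations). Phosphorylation was detected by TR-FRET with a terbium-labelled anti-eIF2alpha antibody after 1 hr, with enzyme-free wells as control.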

For assay [3], the system named is human acute lymphoblastic leukemia cell line CCRF-CEM. The assay is described as follows: In vitro tumor proliferation inhibitory assay with combined use of asparaginase. The assay is classed as cell-based. Conditions: compound concentration 100 nM, L-asparaginase 0.1 U/mL, 72 hr, read-out: in vitro cell proliferation inhibitory rate (%). As to the method: A cell suspension (40 μL) (5000 cells/well) of human acute lymphoblastic leukemia cell line CCRF-CEM obtained from ATCC (American Type Culture Collection) was seeded on a 384 well plate using RPMI1640 medium. The seeded cells were incubated (37° C., 5% CO2) overnight to 24 hr at the longest. L-asparaginase (Sigma-Aldrich Co. LLC.) was dissolved in PBS and treated in each well to a final concentration of 0.1 U/mL. Furthermore, each test compound was dissolved (10 mM) in DMSO, delivered to wells by using TECAN HP D300 (TECAN), and the plate was incubated for 72 hr (37° C., 5% CO2). A well without addition of compound was treated similarly as a control group. […] After incubation for 10 min, cell proliferation inhibitory rate was measured by the amount of ATP which is a cell viability marker.
Luminescence of cells showing ATP amount was measured using ARVO MX (PerkinElmer). Based on the luminescence value of the control group without addition of test compound solution and the treatment group with addition of test compound, the cell proliferation inhibitory rate (%) of the test compound at a compound concentration of 100 nM was calculated by the following formula and the results thereof are shown in Table 7. Inhibitory rate (%)=(1−(luminescence value of treatment group)÷(luminescence value of control group))×100

T1 sequence (Q9P2K8 whole entry): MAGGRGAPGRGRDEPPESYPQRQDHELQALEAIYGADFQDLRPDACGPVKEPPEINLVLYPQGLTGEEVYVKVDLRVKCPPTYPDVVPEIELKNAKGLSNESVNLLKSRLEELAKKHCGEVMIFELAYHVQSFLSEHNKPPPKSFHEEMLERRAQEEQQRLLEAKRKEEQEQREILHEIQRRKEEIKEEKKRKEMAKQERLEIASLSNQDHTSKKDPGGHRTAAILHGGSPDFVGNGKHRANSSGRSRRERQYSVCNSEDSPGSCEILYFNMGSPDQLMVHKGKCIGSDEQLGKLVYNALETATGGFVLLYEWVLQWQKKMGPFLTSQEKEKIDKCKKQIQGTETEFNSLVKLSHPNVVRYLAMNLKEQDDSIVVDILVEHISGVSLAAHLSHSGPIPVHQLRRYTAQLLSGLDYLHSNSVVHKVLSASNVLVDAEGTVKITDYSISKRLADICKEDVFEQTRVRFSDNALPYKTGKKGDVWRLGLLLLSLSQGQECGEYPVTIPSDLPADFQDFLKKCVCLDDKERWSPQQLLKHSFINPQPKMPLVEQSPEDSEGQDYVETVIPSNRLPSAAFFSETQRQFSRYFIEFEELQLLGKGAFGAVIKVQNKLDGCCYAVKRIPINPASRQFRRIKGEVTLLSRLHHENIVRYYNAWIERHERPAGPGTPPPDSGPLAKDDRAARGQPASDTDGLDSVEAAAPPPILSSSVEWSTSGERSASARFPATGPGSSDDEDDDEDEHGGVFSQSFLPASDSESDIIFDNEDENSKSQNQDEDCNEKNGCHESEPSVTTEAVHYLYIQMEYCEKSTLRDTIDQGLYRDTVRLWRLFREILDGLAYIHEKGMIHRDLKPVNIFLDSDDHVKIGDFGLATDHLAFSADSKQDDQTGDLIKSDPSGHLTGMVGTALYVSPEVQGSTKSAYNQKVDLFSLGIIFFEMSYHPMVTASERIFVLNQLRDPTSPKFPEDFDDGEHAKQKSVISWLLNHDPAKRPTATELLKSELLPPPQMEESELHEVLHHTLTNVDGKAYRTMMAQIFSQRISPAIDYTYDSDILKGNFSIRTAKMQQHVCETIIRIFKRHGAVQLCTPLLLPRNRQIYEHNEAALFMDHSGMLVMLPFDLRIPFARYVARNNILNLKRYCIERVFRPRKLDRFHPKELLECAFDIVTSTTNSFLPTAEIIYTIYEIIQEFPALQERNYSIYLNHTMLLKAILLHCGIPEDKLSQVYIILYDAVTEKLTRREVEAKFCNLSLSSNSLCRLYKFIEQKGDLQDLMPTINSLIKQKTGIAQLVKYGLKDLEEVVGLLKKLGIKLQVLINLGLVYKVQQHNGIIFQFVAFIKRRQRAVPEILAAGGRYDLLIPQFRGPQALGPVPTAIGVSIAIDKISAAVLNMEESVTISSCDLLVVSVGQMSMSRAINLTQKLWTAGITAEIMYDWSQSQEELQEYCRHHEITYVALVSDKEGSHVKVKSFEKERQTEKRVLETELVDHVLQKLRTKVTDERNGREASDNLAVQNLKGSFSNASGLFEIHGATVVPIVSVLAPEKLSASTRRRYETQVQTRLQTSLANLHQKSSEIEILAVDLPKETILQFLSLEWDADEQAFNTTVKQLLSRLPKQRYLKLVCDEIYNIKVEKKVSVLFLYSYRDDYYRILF

As for `Nc1ncc(C#Cc2c(F)ccc(NS(=O)(=O)c3cc(Cl)cc(CO)c3Cl)c2F)cn1` [Example 4, N-(3-((2-aminopyrimidin-5-yl)ethynyl)-2,4-difluorophenyl)-2,5-dichloro-3-(hydroxymethyl)benzenesulfonamide], the “in vitro ATF4 expression inhibition ratio (%)” value in assay [1] turned out to be 97%. Also, the inhibition at 3 µM in assay [2] was 100%. Further, in assay [3], the inhibition at 0.1 µM is 89%.

With `COc1ncc(Cl)cc1S(=O)(=O)Nc1ccc(F)c(C#Cc2cnc(N)nc2)c1F` [Example 7, N-(3-((2-aminopyrimidin-5-yl)ethynyl)-2,4-difluorophenyl)-5-chloro-2-methoxypyridine-3-sulfonamide], the “in vitro ATF4 expression inhibition ratio (%)” value in assay [1] is on record as 97%. Also, in assay [2], the inhibition at 3 µM is 100%. Moreover, the inhibition at 0.1 µM in assay [3] was determined as 90%.
